Measured values published in ChEMBL document CHEMBL5523751, “Discovery of Novel Diaryl-Substituted Fused Heterocycles Targeting Katanin and Tubulin with Potent Antitumor and Antimultidrug Resistance Efficacy” (J Med Chem, 2024).
pIC50: −log10 of the molar value. Calls of active or inactive are those of the source. The calls are words filed in the database; no cut-off is given here.

Assays:
MCF7 = assay: Antiproliferative activity against human MCF7 cells assessed as inhibition of cell growth measured after 48 hrs by MTT assay; assay type: functional, cell-based; details: MCF7, 48 h
[1] = Resistance index, ratio of IC50 for antiproliferative activity against human A549/Taxol cells to IC50 for antiproliferative activity against human A549 cells; assay type: functional
[2] = molecular target: Katanin p60 ATPase-containing subunit A1 (Homo sapiens, UniProt O75449); assay: Binding affinity to katanin p60 in human MCF7 cell lysate incubated for 1 hr by streptavidin pulldown based immunoblot analysis; assay type: subcellular
Sequence of Katanin p60 ATPase-containing subunit A1 (O75449 whole entry): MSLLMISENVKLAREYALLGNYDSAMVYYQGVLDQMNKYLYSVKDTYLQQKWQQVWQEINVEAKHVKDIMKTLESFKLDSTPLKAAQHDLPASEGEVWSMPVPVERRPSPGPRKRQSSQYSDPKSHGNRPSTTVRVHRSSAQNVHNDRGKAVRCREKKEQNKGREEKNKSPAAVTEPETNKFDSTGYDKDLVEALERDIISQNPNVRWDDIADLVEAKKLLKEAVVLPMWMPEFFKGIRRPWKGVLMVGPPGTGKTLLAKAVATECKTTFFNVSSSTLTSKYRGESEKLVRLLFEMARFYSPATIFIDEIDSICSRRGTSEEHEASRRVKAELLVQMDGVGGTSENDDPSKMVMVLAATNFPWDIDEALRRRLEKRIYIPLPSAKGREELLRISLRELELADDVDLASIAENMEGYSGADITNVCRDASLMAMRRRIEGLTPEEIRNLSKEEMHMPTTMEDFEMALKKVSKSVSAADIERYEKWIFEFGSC

Compound	pIC50 (MCF7)	other results
COc1ccc(-c2cc(OC)c3[nH]c(=O)n(-c4cc(OC)c(OC)c(OC)c4)c3c2)cc1O	6.44	–
COc1ccc(-c2cc(C)c3ncn(-c4cc(OC)c(OC)c(OC)c4)c3n2)cc1O	7.49	–
COc1ccc(-c2ccc3ncn(-c4cc(OC)c(OC)c(OC)c4)c3c2)cc1O	7.44	–
CC(=O)O[C@@]12CO[C@@H]1C[C@H](O)[C@@]1(C)C(=O)[C@H](O)C3=C(C)[C@@H](OC(=O)[C@H](O)[C@@H](NC(=O)OC(C)(C)C)c4ccccc4)C[C@@](O)([C@@H](OC(=O)c4ccccc4)[C@H]21)C3(C)C [DOCETAXEL ANHYDROUS]	–	Ratio IC50 [1]: >10
COc1cc(-n2cnc3ccc(-c4ccc(C)c(NC(=O)CCCCCNC(=O)CCCC[C@@H]5SC[C@@H]6NC(=O)N[C@@H]65)c4)nc32)cc(OC)c1OC	6.93	Activity [2]: Active
COc1ccc(-c2cc3c(cc2F)nc(C)n3-c2cc(OC)c(OC)c(OC)c2)cc1O	6.58	–
COc1ccc(-c2ccc3nc(C)n(-c4cc(OC)c(OC)c(OC)c4)c3c2)cc1O	6.57	–
COc1ccc(-c2cnc3ncn(-c4cc(OC)c(OC)c(OC)c4)c3c2)cc1O	7.48	–
COc1ccc(-c2cc3c(cc2Cl)ncn3-c2cc(OC)c(OC)c(OC)c2)cc1O	< 6.00	–
CC[C@]1(O)C[C@H]2CN(CCc3c([nH]c4ccccc34)[C@@](C(=O)OC)(c3cc4c(cc3OC)N(C=O)[C@H]3[C@@](O)(C(=O)OC)[C@H](OC(C)=O)[C@]5(CC)C=CCN6CC[C@]43[C@@H]65)C2)C1 [VINCRISTINE]	–	Ratio IC50 [1]: >10
COc1ccc(-c2cc3c(cc2F)ncn3-c2cc(OC)c(OC)c(OC)c2)cc1O	7.08	–
COc1ccc(-c2ccc3ncn(-c4cc(OC)c(OC)c(OC)c4)c3c2F)cc1O	7.62	–
COc1ccc(-c2cc(N(C)C)c3[nH]c(=O)n(-c4cc(OC)c(OC)c(OC)c4)c3c2)cc1O	< 6.00	–
COc1ccc(-c2ccc3nc(C(F)(F)F)n(-c4cc(OC)c(OC)c(OC)c4)c3c2)cc1O	< 6.00	–
COc1cc(-n2cnc3ccc(-c4ccc(C)c(Cl)c4)nc32)cc(OC)c1OC	6.92	–

Continued, in another order:

pIC50 (MCF7)	Compound	other results
7.17	COc1cc(-n2cnc3c(OC)cc(-c4ccc(C)c(CO)c4)cc32)cc(OC)c1OC	–
7.62	COc1ccc(-c2cc(OC)c3ncn(-c4cc(OC)c(OC)c(OC)c4)c3c2)cc1O	–
6.43	COc1ccc(-c2cc3c(cc2C)ncn3-c2cc(OC)c(OC)c(OC)c2)cc1O	–
8.05	COc1cc(-n2cnc3c(OC)cc(-c4ccc(C)c(N)c4)cc32)cc(OC)c1OC	–
6.59	COc1cc(-n2cnc3c(OC)cc(-c4ccc(N)c([N+](=O)[O-])c4)cc32)cc(OC)c1OC	–
7.59	COc1ccc(-c2cc(F)c3ncn(-c4cc(OC)c(OC)c(OC)c4)c3c2)cc1O	–
6.36	COc1cc(-n2cnc3c(OC)cc(-c4ccc(C)c(NC(C)=O)c4)cc32)cc(OC)c1OC	–
